Experimental data: PMC10819888, “Benzimidazole-Based Derivatives as Apoptotic Antiproliferative Agents: Design, Synthesis, Docking, and Mechanistic Studies” (Molecules, 2024)
Like-named read-outs stand apart in the source and are kept apart here.

Experiments:
[1] = test system: KM12; test: NCI-60 five-dose assay; assay type: cell-based, human; settings: KM12, Colon Cancer
[2] = test system: MOLT-4; test: NCI-60 five-dose assay; assay type: cell-based, human; settings: MOLT-4, Leukemia
[3] = test system: LOX IMVI; test: NCI-60 five-dose assay; assay type: cell-based, human; settings: LOX IMVI, Melanoma
[4] = test system: RXF 393; test: NCI-60 five-dose assay; assay type: cell-based, human; settings: RXF 393, Renal Cancer
[5] = test system: OVCAR-5; test: NCI-60 five-dose assay; assay type: cell-based, human; settings: OVCAR-5, Ovarian Cancer
[6] = test system: UACC-62; test: NCI-60 five-dose assay; assay type: cell-based, human; settings: UACC-62, Melanoma
[7] = test system: full panel of 60 human tumor cell lines; test: NCI-60 five-dose assay, full panel; assay type: cell-based
[8] = test system: MALME-3M; test: NCI-60 five-dose assay; assay type: cell-based, human; settings: MALME-3M, Melanoma
[9] = test system: Breast Cancer subpanel; test: NCI-60 five-dose assay, subpanel; assay type: cell-based, human; settings: Breast Cancer
[10] = test system: SF-268; test: NCI-60 five-dose assay; assay type: cell-based, human; settings: SF-268, CNS Cancer
[11] = test system: ACHN; test: NCI-60 five-dose assay; assay type: cell-based, human; settings: ACHN, Renal Cancer
[12] = test system: T-47D; test: NCI-60 five-dose assay; assay type: cell-based, human; settings: T-47D, Breast Cancer
[13] = test system: SN12C; test: NCI-60 five-dose assay; assay type: cell-based, human; settings: SN12C, Renal Cancer
[14] = test system: Prostate Cancer subpanel; test: NCI-60 five-dose assay, subpanel; assay type: cell-based, human; settings: Prostate Cancer
[15] = test system: K-562; test: NCI-60 five-dose assay; assay type: cell-based, human; settings: K-562, Leukemia
[16] = test system: EKVX; test: NCI-60 five-dose assay; assay type: cell-based, human; settings: EKVX, Non-Small Cell Lung Cancer
[17] = test system: OVCAR-8; test: NCI-60 five-dose assay; assay type: cell-based, human; settings: OVCAR-8, Ovarian Cancer
[18] = test system: UACC-257; test: NCI-60 five-dose assay; assay type: cell-based, human; settings: UACC-257, Melanoma
[19] = test system: Melanoma subpanel; test: NCI-60 five-dose assay, subpanel; assay type: cell-based, human; settings: Melanoma
[20] = test system: NCI-H226; test: NCI-60 five-dose assay; assay type: cell-based, human; settings: NCI-H226, Non-Small Cell Lung Cancer
[21] = test system: HCC-2998; test: NCI-60 five-dose assay; assay type: cell-based, human; settings: HCC-2998, Colon Cancer
[22] = test system: HOP-92; test: NCI-60 five-dose assay; assay type: cell-based, human; settings: HOP-92, Non-Small Cell Lung Cancer
[23] = test system: M14; test: NCI-60 five-dose assay; assay type: cell-based, human; settings: M14, Melanoma
[24] = test system: SNB-19; test: NCI-60 five-dose assay; assay type: cell-based, human; settings: SNB-19, CNS Cancer
[25] = biological target: EGFR (Homo sapiens, UniProt P00533); test: EGFR inhibitory assay
Sequence of EGFR (P00533 669-1210): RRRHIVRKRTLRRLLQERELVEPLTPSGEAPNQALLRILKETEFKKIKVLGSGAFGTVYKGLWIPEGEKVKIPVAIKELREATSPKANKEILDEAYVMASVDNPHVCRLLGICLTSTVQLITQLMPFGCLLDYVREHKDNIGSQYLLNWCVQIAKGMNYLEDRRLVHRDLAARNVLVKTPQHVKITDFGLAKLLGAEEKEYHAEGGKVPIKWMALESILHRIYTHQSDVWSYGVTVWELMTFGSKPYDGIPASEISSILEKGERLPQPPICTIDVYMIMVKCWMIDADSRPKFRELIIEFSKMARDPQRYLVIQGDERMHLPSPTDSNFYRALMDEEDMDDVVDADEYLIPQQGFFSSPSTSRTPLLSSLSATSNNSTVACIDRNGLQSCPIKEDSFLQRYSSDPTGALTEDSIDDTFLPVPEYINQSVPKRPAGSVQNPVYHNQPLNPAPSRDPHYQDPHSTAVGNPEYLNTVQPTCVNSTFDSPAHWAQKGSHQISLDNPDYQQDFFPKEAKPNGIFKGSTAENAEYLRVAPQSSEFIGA

[26] = test system: COLO 205; test: NCI-60 five-dose assay; assay type: cell-based, human; settings: COLO 205, Colon Cancer
[27] = Homo sapiens, read-out: GI50 Conc. per Cell Line
[28] = Homo sapiens, read-out: LC50 (the source's name)
[29] = Homo sapiens, average sensitivity of all subpanel cell lines, read-out: GI50 Subpanel MID b

COc1ccc(C=NNC(=O)c2ccc3[nH]c(-c4ccc(Cl)cc4)nc3c2)cc1 [Compound 4g, N′-(4-Methoxybenzylidene)-2-(4-chlorophenyl)-1H-benzimidazole-5-carbohydrazide]
GI50 [1, 27]: 3.03 µM | CC50 [1, 28]: > 100 µM | TGI [1]: 9.58 µM | GI50 [2, 27]: 4.53 µM | CC50 [2, 28]: > 100 µM | TGI [2]: 30.40 µM | GI50 [3, 27]: 2.19 µM | CC50 [3, 28]: 7.34 µM | TGI [3]: 4.01 µM | GI50 [4, 27]: 1.86 µM | CC50 [4, 28]: 7.76 µM | TGI [4]: 3.80 µM | GI50 [5, 27]: 2.35 µM | CC50 [5, 28]: 33.5 µM | TGI [5]: 6.89 µM | GI50 [6, 27]: 1.94 µM | CC50 [6, 28]: 10.9 µM | TGI [6]: 4.47 µM | GI50 ([7]; average sensitivity of all cell lines, read-out: MID a (GI50)): 2.52 µM | GI50 ([7]; five-dose assay, range over cell lines, read-out: GI50 range over the examined cell lines): 0.997 to 7.81 µM | LC50 ([8]; Homo sapiens): 7.9 µM | GI50 [8, 27]: 1.67 µM | TGI [8]: 3.63 µM | GI50 Selectivity Ratio (MID a/MID b) [9]: 1.12 | GI50 [9, 29]: 2.24 µM | GI50 [10, 27]: 2.09 µM | CC50 [10, 28]: 20.8 µM | TGI [10]: 5.10 µM | TGI [11]: 5.04 µM | GI50 [11, 27]: 2 µM | CC50 [11, 28]: 16.9 µM | GI50 ([12]; Homo sapiens, T47D, read-out: GI50 Conc. per Cell Line): 1.94 µM | CC50 ([12]; Homo sapiens, T47D, read-out: LC50 (the source's name)): 30 µM | TGI [12]: 4.83 µM | GI50 [13, 27]: 2.46 µM | CC50 [13, 28]: 33.9 µM | TGI [13]: 6.79 µM | GI50 [14, 29]: 1.81 µM | GI50 Selectivity Ratio (MID a/MID b) [14]: 1.39 | GI50 ([15]; Homo sapiens, K562, read-out: GI50 Conc. per Cell Line): 2.69 µM | CC50 ([15]; Homo sapiens, K562, read-out: LC50 (the source's name)): > 100 µM | TGI [15]: 11.20 µM | TGI [16]: 5.84 µM | GI50 [16, 27]: 2.11 µM | CC50 [16, 28]: 36.6 µM | GI50 [17, 27]: 3.19 µM | CC50 [17, 28]: > 100 µM | TGI [17]: 11.50 µM | GI50 [18, 27]: 3.27 µM | CC50 [18, 28]: 60 µM | TGI [18]: 10.10 µM | GI50 [19, 29]: 2.43 µM | GI50 Selectivity Ratio (MID a/MID b) [19]: 1.04 | GI50 [20, 27]: 1.79 µM | CC50 [20, 28]: 13.5 µM | TGI [20]: 4.43 µM | TGI [21]: 6.44 µM | GI50 [21, 27]: 2.57 µM | CC50 [21, 28]: 37.8 µM | TGI [22]: 4.11 µM | LC50 (50% lethal concentration) ([22]; Homo sapiens): 15.1 µM | GI50 [22, 27]: 1.52 µM | GI50 [23, 27]: 2.41 µM | CC50 [23, 28]: 40.5 µM | TGI [23]: 7.76 µM | GI50 [24, 27]: 3.13 µM | CC50 [24, 28]: 49.6 µM | TGI [24]: 7.95 µM | IC50 [25]: 0.27 ± 0.03 µM | TGI [26]: 5.43 µM | GI50 [26, 27]: 1.94 µM | CC50 [26, 28]: 33 µM
